Tests used:
[1] = biological target: T1, 5-HT transporter (Rattus norvegicus, UniProt P31652); assay: 5-HT uptake inhibition in rat brain synaptosomes (medulla and pons), [3H]-5-HT; format: biochemical
T1 construct: from tissue; host or cells: rat brain synaptosomes (P2 fraction) from medulla and pons
Outline: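 Freshly isolated P2 synaptosomes taken from rat hypothalamus (NA) or medulla/pons (5-HT) were incubated at room temperature under O2 with [3H]-NA for 7.5 min or [3H]-5-HT for 5 min. Uptake was measured as filter-retained radioactivity by scintillation counting.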

[2] = biological target: T2, NA transporter (Rattus norvegicus, UniProt Q63380); assay: noradrenalin uptake inhibition in rat brain synaptosomes (hypothalamus), [3H]-NA; format: biochemical
T2 construct: from tissue; host or cells: rat brain synaptosomes (P2 fraction) from hypothalamus
T2 sequence (Q63380 1-617): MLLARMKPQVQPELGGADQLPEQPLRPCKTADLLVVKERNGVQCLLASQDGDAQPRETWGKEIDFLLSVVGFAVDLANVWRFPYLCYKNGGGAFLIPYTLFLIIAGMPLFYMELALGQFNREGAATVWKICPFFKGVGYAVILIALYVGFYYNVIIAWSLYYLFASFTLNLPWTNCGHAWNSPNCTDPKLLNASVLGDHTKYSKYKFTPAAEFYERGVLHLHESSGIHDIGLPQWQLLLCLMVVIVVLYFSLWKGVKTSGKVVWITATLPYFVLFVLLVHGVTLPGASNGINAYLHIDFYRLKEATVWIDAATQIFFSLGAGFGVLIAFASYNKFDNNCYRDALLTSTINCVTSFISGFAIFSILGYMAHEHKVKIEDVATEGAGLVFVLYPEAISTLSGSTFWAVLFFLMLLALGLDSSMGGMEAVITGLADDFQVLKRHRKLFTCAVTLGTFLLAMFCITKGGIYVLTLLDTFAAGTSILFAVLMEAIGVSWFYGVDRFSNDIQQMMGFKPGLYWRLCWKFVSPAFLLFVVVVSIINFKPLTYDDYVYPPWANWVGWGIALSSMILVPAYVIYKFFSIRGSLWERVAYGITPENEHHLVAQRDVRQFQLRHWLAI
Source text: a) Method for Determining Noradrenalin and 5-HT Uptake Inhibition:
Synaptosomes from rat brain regions are freshly isolated for in vitro studies, as described in the publication “The isolation of nerve endings from brain” by E. G. Gray and V. P. Whittaker, J. Anatomy 96, pages 79-88, 1962. The corresponding literature description is hereby introduced as a reference and is deemed to be part of the disclosure.
The tissue (hypothalamus for the determination of noradrenalin uptake inhibition and medulla and pons for the determination of 5-HT uptake inhibition) is homogenised in ice-cooled 0.32 M sucrose (100 mg of tissue/1 mL) in a glass homogeniser with Teflon pestle using five complete up and down strokes at 840 revolutions/minute.
The homogenate is centrifuged at 4° C. for 10 minutes at 1000 g. After subsequent centrifugation at 17000 g for 55 minutes, the synaptosomes (P2 fraction) are obtained, which are resuspended in 0.32 M […] (0.5 mL/100 mg of original weight).
The particular uptake is measured in a 96-well microtitre plate. The volume is 250 μl and the incubation proceeds at room temperature (approx. 20-25° C.) under an O2 atmosphere.
The incubation time is 7.5 minutes for [^3H]-NA and 5 minutes for [^3H]-5-HT. The 96 samples are then filtered through a Unifilter GF/B® microtitre plate (Packard) and washed with 200 mL of incubated buffer using a “Brabdel MPXRI-96T Cell-Harvester”. The Unifilter GF/B plate is dried for 1 hour at 55° C. The plate is then sealed with a Back Seal® (Packard) and 35 μl of scintillation fluid are added per well (Ultima Gold®, Packard). After sealing with a top Seal® (Packard) and establishing an equilibrium (around 5 hours), radioactivity is determined in a “Trilux 1450 Microbeta” (Wallac).
The quantity of protein used in the above determination corresponds to the values known from the literature, as for example described in “Protein measurement with the folin phenol reagent”, Lowry et al., J. Biol. Chem., 193, 265-275, 1951.
A detailed description of the method may additionally be found in the literature, for example in M. Ch. Frink, H.-H. Hennies, W. Engelberger, M. Haurand and B. Wilffert (1996) Arzneim.-Forsch./Drug Res. 46 (III), 11, 1029-1036.

T1 sequence (P31652 whole entry): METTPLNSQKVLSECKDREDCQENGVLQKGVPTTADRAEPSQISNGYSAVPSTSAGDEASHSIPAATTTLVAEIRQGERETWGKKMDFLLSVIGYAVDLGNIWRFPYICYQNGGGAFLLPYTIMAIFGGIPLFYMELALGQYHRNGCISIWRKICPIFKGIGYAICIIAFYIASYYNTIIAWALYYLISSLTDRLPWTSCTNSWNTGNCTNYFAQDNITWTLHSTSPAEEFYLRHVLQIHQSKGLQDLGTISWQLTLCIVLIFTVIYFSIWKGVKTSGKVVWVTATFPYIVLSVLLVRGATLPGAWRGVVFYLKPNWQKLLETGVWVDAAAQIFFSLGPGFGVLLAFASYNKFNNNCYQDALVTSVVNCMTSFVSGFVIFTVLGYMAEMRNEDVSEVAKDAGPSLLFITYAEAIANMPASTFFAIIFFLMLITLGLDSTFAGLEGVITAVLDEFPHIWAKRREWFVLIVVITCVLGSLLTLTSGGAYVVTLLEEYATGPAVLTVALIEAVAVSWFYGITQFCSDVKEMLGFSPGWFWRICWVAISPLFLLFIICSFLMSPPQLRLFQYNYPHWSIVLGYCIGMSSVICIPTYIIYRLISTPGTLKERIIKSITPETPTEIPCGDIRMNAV

## O=C1OC2(CCN(C(=S)Nc3cc(Cl)ccc3Cl)CC2)CN1Cc1cccc(Br)c1 [Example 2, 3-(3-bromobenzyl)-2-oxo-1-oxa-3,8-diazaspiro[4.5]decane-8-carbothioic acid (2,5-dichlorophenyl)amide]
[1]
  inhibition at 10 µM: 60%
[2]
  inhibition at 10 µM: 64%

## COc1ccccc1NC(=S)N1CCC2(CC1)CN(Cc1cccc(Br)c1)C(=O)O2 [Example 6, 3-(3-bromobenzyl)-2-oxo-1-oxa-3,8-diazaspiro[4.5]decane-8-carbothioic acid (2-methoxyphenyl)amide]
[1]
  inhibition at 10 µM: 63%
[2]
  inhibition at 10 µM: 56%

## CC(=O)c1cccc(NC(=S)N2CCC3(CC2)CN(Cc2cc(C)cc(C)c2)C(=O)O3)c1 [Example 7, 3-(3,5-dimethylbenzyl)-2-oxo-1-oxa-3,8-diazaspiro[4.5]decane-8-carbothioic acid (3-acetylphenyl)amide]
[1]
  inhibition at 10 µM: 55%
[2]
  inhibition at 10 µM: 50%

## Cc1ccccc1NC(=S)N1CCC2(CC1)CN(Cc1ccccc1)C(=O)O2 [Example 8, 3-benzyl-2-oxo-1-oxa-3,8-diazaspiro[4.5]decane-8-carbothioic acid o-tolylamide]
[1]
  inhibition at 10 µM: 62%
[2]
  inhibition at 10 µM: 50%

## C=CCNC(=S)N1CCC2(CC1)CN(Cc1ccc3ccccc3c1)C(=O)O2 [Example 10, 3-naphthalen-2-ylmethyl-2-oxo-1-oxa-3,8-diazaspiro[4.5]decane-8-carbothioic acid allylamide]
[1]
  inhibition at 10 µM: 50%
[2]
  inhibition at 10 µM: 78%

## CCOc1ccc(NC(=S)N2CCC3(CC2)CN(Cc2ccc(F)c(F)c2)C(=O)O3)cc1 [Example 13, 3-(3,4-difluorobenzyl)-2-oxo-1-oxa-3,8-diazaspiro[4.5]decane-8-carbothioic acid (4-ethoxyphenyl)amide]
[1]
  inhibition at 10 µM: 44%
[2]
  inhibition at 10 µM: 53%

## N#Cc1cccc(CN2CC3(CCN(C(=S)Nc4cc(Cl)cc(Cl)c4)CC3)OC2=O)c1 [Example 14, 3-(3-cyanobenzyl)-2-oxo-1-oxa-3,8-diazaspiro[4.5]decane-8-carbothioic acid (3,5-dichlorophenyl)amide]
[1]
  inhibition at 10 µM: 57%
[2]
  inhibition at 10 µM: 49%

## N#Cc1cccc(CN2CC3(CCN(C(=S)Nc4cccc(C(F)(F)F)c4)CC3)OC2=O)c1 [Example 15, 3-(3-cyanobenzyl)-2-oxo-1-oxa-3,8-diazaspiro[4.5]decane-8-carbothioic acid (3-trifluoromethylphenyl)amide]
[1]
  inhibition at 10 µM: 57%
[2]
  inhibition at 10 µM: 55%

## COc1ccc([N+](=O)[O-])cc1CN1CC2(CCN(C(=S)NCC3CCCO3)CC2)OC1=O (centres unmarked) [Example 17, 3-(2-methoxy-5-nitrobenzyl)-2-oxo-1-oxa-3,8-diazaspiro[4.5]decane-8-carbothioic acid (tetrahydrofuran-2-ylmethyl)amide]
[1]
  inhibition at 10 µM: 50%
[2]
  inhibition at 10 µM: 45%

## N#Cc1cccc(CN2CC3(CCN(C(=S)NCC4CCCCC4)CC3)OC2=O)c1 [Example 19, 3-(3-cyanobenzyl)-2-oxo-1-oxa-3,8-diazaspiro[4.5]decane-8-carbothioic acid cyclohexylmethylamide]
[1]
  inhibition at 10 µM: 69%
[2]
  inhibition at 10 µM: 48%

## CC(=O)c1cccc(NC(=S)N2CCC3(CC2)CN(Cc2ccccc2F)C(=O)O3)c1 [Example 20, 3-(2-fluorobenzyl)-2-oxo-1-oxa-3,8-diazaspiro[4.5]decane-8-carbothioic acid (3-acetylphenyl)amide]
[2]
  inhibition at 10 µM: 48%

## CCOc1ccc(NC(=O)N2CCC3(CC2)CN(Cc2ccccc2F)C(=O)O3)cc1 [Example 24, 3-(2-fluorobenzyl)-2-oxo-1-oxa-3,8-diazaspiro[4.5]decane-8-carboxylic acid (4-ethoxyphenyl)amide]
[2]
  inhibition at 10 µM: 58%

## Cc1ccc(CN2CC3(CCN(C(=O)Nc4ccc(C)c([N+](=O)[O-])c4)CC3)OC2=O)cc1 [Example 27, 3-(4-methylbenzyl)-2-oxo-1-oxa-3,8-diazaspiro[4.5]decane-8-carboxylic acid (4-methyl-3-nitrophenyl)amide]
[1]
  inhibition at 10 µM: 62%
[2]
  inhibition at 10 µM: 68%

## O=C(NCc1ccc(F)cc1)N1CCC2(CC1)CN(Cc1ccc(F)c(F)c1)C(=O)O2 [Example 28, 3-(3,4-difluorobenzyl)-2-oxo-1-oxa-3,8-diazaspiro[4.5]decane-8-carboxylic acid 4-fluorobenzylamide]
[1]
  inhibition at 10 µM: 45%
[2]
  inhibition at 10 µM: 53%

## O=C(Nc1cc(F)ccc1F)N1CCC2(CC1)CN(Cc1cccc(Br)c1)C(=O)O2 [Example 29, 3-(3-bromobenzyl)-2-oxo-1-oxa-3,8-diazaspiro[4.5]decane-8-carboxylic acid (2,5-difluorophenyl)amide]
[1]
  inhibition at 10 µM: 84%
[2]
  inhibition at 10 µM: 82%

## N#Cc1cccc(NC(=O)N2CCC3(CC2)CN(Cc2ccccc2)C(=O)O3)c1 [Example 33, 3-benzyl-2-oxo-1-oxa-3,8-diazaspiro[4.5]decane-8-carboxylic acid (3-cyanophenyl)amide]
[1]
  inhibition at 10 µM: 59%
[2]
  inhibition at 10 µM: 93%

## Cc1ccc(NC(=O)N2CCC3(CC2)CN(Cc2ccc(F)c(F)c2)C(=O)O3)cc1[N+](=O)[O-] [Example 34, 3-(3,4-difluorobenzyl)-2-oxo-1-oxa-3,8-diazaspiro[4.5]decane-8-carboxylic acid (4-methyl-3-nitrophenyl)amide]
[2]
  inhibition at 10 µM: 41%

## COc1cccc(NC(=O)N2CCC3(CC2)CN(Cc2ccc(F)c(F)c2)C(=O)O3)c1 [Example 35, 3-(3,4-difluorobenzyl)-2-oxo-1-oxa-3,8-diazaspiro[4.5]decane-8-carboxylic acid (3-methoxyphenyl)amide]
[1]
  inhibition at 10 µM: 56%
[2]
  inhibition at 10 µM: 63%

## Cc1ccc(CN2CC3(CCN(C(=O)NCc4ccc(Cl)c(Cl)c4)CC3)OC2=O)cc1 [Example 36, 3-(4-methylbenzyl)-2-oxo-1-oxa-3,8-diazaspiro[4.5]decane-8-carboxylic acid 3,4-dichlorobenzylamide]
[1]
  inhibition at 10 µM: 56%
[2]
  inhibition at 10 µM: 60%

## O=C(Nc1ccc(Cl)c(C(F)(F)F)c1)N1CCC2(CC1)CN(Cc1ccccc1)C(=O)O2 [Example 37, 3-benzyl-2-oxo-1-oxa-3,8-diazaspiro[4.5]decane-8-carboxylic acid (4-chloro-3-trifluoromethylphenyl)amide]
[2]
  inhibition at 10 µM: 47%

## COc1ccc(NC(=O)N2CCC3(CC2)CN(Cc2ccccc2)C(=O)O3)cc1 [Example 39, 3-benzyl-2-oxo-1-oxa-3,8-diazaspiro[4.5]decane-8-carboxylic acid (4-methoxyphenyl)amide]
[1]
  inhibition at 10 µM: 42%
[2]
  inhibition at 10 µM: 76%

## O=C(NCc1ccc(Cl)c(Cl)c1)N1CCC2(CC1)CN(Cc1cccc(Br)c1)C(=O)O2 [Example 42, 3-(3-bromobenzyl)-2-oxo-1-oxa-3,8-diazaspiro[4.5]decane-8-carboxylic acid 3,4-dichlorobenzylamide]
[1]
  inhibition at 10 µM: 60%
[2]
  inhibition at 10 µM: 83%

## O=C(NCc1ccc(Cl)c(Cl)c1)N1CCC2(CC1)CN(Cc1ccc3ccccc3c1)C(=O)O2 [Example 44, 3-naphthalen-2-ylmethyl-2-oxo-1-oxa-3,8-diazaspiro[4.5]decane-8-carboxylic acid 3,4-dichlorobenzylamide]
[1]
  inhibition at 10 µM: 57%
[2]
  inhibition at 10 µM: 61%

## O=C(NCCc1ccccc1)N1CCC2(CC1)CN(Cc1ccccc1C(F)(F)F)C(=O)O2 [Example 49, 2-oxo-3-(2-trifluoromethylbenzyl)-1-oxa-3,8-diazaspiro[4.5]decane-8-carboxylic acid phenethylamide]
[2]
  inhibition at 10 µM: 48%

## COc1ccc(NC(=O)N2CCC3(CC2)CN(Cc2ccc4ccccc4c2)C(=O)O3)cc1 [Example 52, 3-naphthalen-2-ylmethyl-2-oxo-1-oxa-3,8-diazaspiro[4.5]decane-8-carboxylic acid (4-methoxyphenyl)amide]
[1]
  inhibition at 10 µM: 94%
[2]
  inhibition at 10 µM: 96%

## O=C(Nc1cccc(F)c1)N1CCC2(CC1)CN(Cc1ccccc1)C(=O)O2 [Example 60, 3-benzyl-2-oxo-1-oxa-3,8-diazaspiro[4.5]decane-8-carboxylic acid (3-fluorophenyl)amide]
[2]
  inhibition at 10 µM: 58%

## Cc1ccc(CN2CC3(CCN(CC(=O)Nc4ccc(S(=O)(=O)Nc5cc(Cl)cc(Cl)c5)cc4)CC3)OC2=O)cc1 [Example 75, N-[4-(3,5-dichlorophenylsulfamoyl)phenyl]-2-[3-(4-methylbenzyl)-2-oxo-1-oxa-3,8-diazaspiro[4.5]dec-8-yl]acetamide]
[2]
  inhibition at 10 µM: 67%

Reference: patent publication US8153795B2, “Substituted 1-oxa-3,8-diazaspiro[4.5]-decan-2-one-compounds and the use thereof for producing drugs” (Gruenenthal GmbH, priority 2005, dated 2012)
